According to PubChem BioAssay AID248 (DTP/NCI, 2004):
“And” between values parts separate entries of the source, which are not always exact repeats. Equal entries are not always repeated. Toxic doses and inconclusive results are not listed. Cut-off read from the data, not from the text of the source: active = T/C of 150% or more; inactive = T/C below 125%.

Test system: L1210 leukemia ip in BDF1 mice, survival T/C
Assay: NCI In Vivo Anticancer Drug Screen. Data for tumor model L1210 Leukemia (intraperitoneal) in B6D2F1 (BDF1) mice
Conditions: endpoint: mean survival time, higher = longer survival
In short: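 Antitumor effect is assessed in tumor-bearing animals. Survival in the compound arm is compared with a vehicle-dosed control arm and expressed as their quotient.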

[1] = dose: 100.0 mg/kg/injection, schedule: Q01DX009 (ip), vehicle: Klucel (hydroxypropylcellulose) (HPC)
[2] = dose: 100.0 mg/kg/injection, schedule: Q04DX003 (ip), vehicle: Klucel (hydroxypropylcellulose) (HPC)
[3] = dose: 200.0 mg/kg/injection, schedule: Q04DX003 (ip), vehicle: Klucel (hydroxypropylcellulose) (HPC)
[4] = dose: 400.0 mg/kg/injection, schedule: Q01DX009 (ip), vehicle: Klucel (hydroxypropylcellulose) (HPC)
[5] = dose: 400.0 mg/kg/injection, schedule: Q04DX003 (ip), vehicle: Klucel (hydroxypropylcellulose) (HPC)
[6] = dose: 100.0 mg/kg/injection, schedule: Q04DX003 (ip), vehicle: saline
[7] = dose: 200.0 mg/kg/injection, schedule: Q04DX003 (ip), vehicle: saline
[8] = dose: 100.0 mg/kg/injection, schedule: Q01DX001 (ip), vehicle: carboxymethylcellulose (CMC)
[9] = dose: 200.0 mg/kg/injection, schedule: Q01DX001 (ip), vehicle: carboxymethylcellulose (CMC)
[10] = dose: 400.0 mg/kg/injection, schedule: Q01DX001 (ip), vehicle: carboxymethylcellulose (CMC)
[11] = dose: 50.0 mg/kg/injection, schedule: Q01DX009 (ip), vehicle: saline
[12] = dose: 100.0 mg/kg/injection, schedule: Q01DX009 (ip), vehicle: saline

Measured: T/C

O=C1OCCN1C(=O)c1ccc(Cl)c(Cl)c1
inactive: dose: 25.0 mg/kg/injection, schedule: Q01DX007 (ip), vehicle: Klucel (hydroxypropylcellulose) (HPC) 97 % of control | dose: 50.0 mg/kg/injection, schedule: Q01DX007 (ip), vehicle: Klucel (hydroxypropylcellulose) (HPC) 95 % of control | dose: 100.0 mg/kg/injection, schedule: Q01DX001 (ip), vehicle: Klucel (hydroxypropylcellulose) (HPC) 100 % of control | dose: 100.0 mg/kg/injection, schedule: Q01DX007 (ip), vehicle: Klucel (hydroxypropylcellulose) (HPC) 100 % of control | [1] 94 % of control | [2] 95 % of control | dose: 200.0 mg/kg/injection, schedule: Q01DX001 (ip), vehicle: Klucel (hydroxypropylcellulose) (HPC) 94 % of control | [3] 100 % of control | dose: 400.0 mg/kg/injection, schedule: Q01DX001 (ip), vehicle: Klucel (hydroxypropylcellulose) (HPC) 96 % of control | [4] 87 % of control | [5] 100 % of control

Nc1cncc2ncc(-c3ccc(Cl)c(Cl)c3)nc12
inactive: dose: 50.0 mg/kg/injection, schedule: Q01DX001 (ip), vehicle: other 98 % of control | dose: 100.0 mg/kg/injection, schedule: Q01DX001 (ip), vehicle: other 98 % of control | dose: 200.0 mg/kg/injection, schedule: Q01DX001 (ip), vehicle: other 98 % of control | dose: 400.0 mg/kg/injection, schedule: Q01DX001 (ip), vehicle: other 100 % of control

CCOC(=O)C1C2OC(=O)C(C(=O)C2CN(CCCl)CCCl)C1c1ccc(OC(C)=O)cc1 (stereo not given)
inactive: dose: 50.0 mg/kg/injection, schedule: Q04DX003 (ip), vehicle: Klucel (hydroxypropylcellulose) (HPC) 93 % of control | [2] 101 % of control | [3] 103 % of control | [5] 97 % of control

Cc1ccc(C(/C=C/c2ccccc2)=N\N=C(N)N)cc1
inactive: dose: 15.0 mg/kg/injection, schedule: Q01DX Z (ip), vehicle: methylcellulose (MC) 87 % of control | dose: 30.0 mg/kg/injection, schedule: Q01DX Z (ip), vehicle: methylcellulose (MC) 87 % of control | dose: 30.0 mg/kg/injection, schedule: Q01DX Z (oral), vehicle: methylcellulose (MC) 93 % of control | dose: 60.0 mg/kg/injection, schedule: Q01DX Z (ip), vehicle: methylcellulose (MC) 97 % of control | dose: 60.0 mg/kg/injection, schedule: Q01DX Z (oral), vehicle: methylcellulose (MC) 87 % of control | dose: 120.0 mg/kg/injection, schedule: Q01DX Z (oral), vehicle: methylcellulose (MC) 95 % of control | dose: 240.0 mg/kg/injection, schedule: Q01DX Z (oral), vehicle: methylcellulose (MC) 95 % of control | dose: 480.0 mg/kg/injection, schedule: Q01DX Z (oral), vehicle: methylcellulose (MC) 100 % of control

CCCc1nc2c(=O)n(C3OC(CO)C(O)C3O)cnc2o1 (stereo not given)
inactive: dose: 100.0 mg/kg/injection, schedule: Q01DX005 (ip), vehicle: saline 95 % of control | dose: 200.0 mg/kg/injection, schedule: Q01DX005 (ip), vehicle: saline 91 % of control

CC1CN=C(c2ccc(NC(=O)Nc3ccc(C4=NCC(C)N4)cc3)cc2)N1 (stereo not given)
inactive: dose: 0.62 mg/kg/injection, schedule: Q01DX Z (ip), vehicle: saline 109 % of control | dose: 1.25 mg/kg/injection, schedule: Q01DX Z (ip), vehicle: saline 114 % of control | dose: 2.5 mg/kg/injection, schedule: Q01DX Z (ip), vehicle: saline 118 % of control | dose: 5.0 mg/kg/injection, schedule: Q01DX Z (ip), vehicle: saline 111 % of control

CN(C)c1nc(N)c(C#N)c(C#N)c1C#N
inactive: dose: 50.0 mg/kg/injection, schedule: Q01DX001 (ip), vehicle: saline 96 % of control | dose: 100.0 mg/kg/injection, schedule: Q01DX001 (ip), vehicle: saline 96 % of control | dose: 200.0 mg/kg/injection, schedule: Q01DX001 (ip), vehicle: saline 100 % of control

CCC1(O)C(=O)OCc2c1ccnc2Cl (stereo not given)
inactive: dose: 50.0 mg/kg/injection, schedule: Q04DX003 (ip), vehicle: saline 105 % of control | [6] 116 % of control | [7] 103 % of control

Cc1cc(C)c(CCc2c(C)cc(C)cc2C)c(C)c1
inactive: dose: 200.0 mg/kg/injection, schedule: Q04DX003 (ip), vehicle: saline with Tween-80 104 % of control | dose: 400.0 mg/kg/injection, schedule: Q04DX003 (ip), vehicle: saline with Tween-80 102 % of control

CCOC(=O)NC(NC(=O)OCC)c1ccc(Cl)c(Cl)c1
inactive: [8] 98 % of control | [9] 98 % of control | [10] 93 % of control

CCCCCCCCCCCCCCCC1=NN(c2ccc([N+](=O)[O-])cc2)C(=O)C1
inactive: [2] 94 % of control | [3] 89 % of control | [5] 100 % of control

CC(C)=CCC(=O)OC(CC=C(C)C)(c1ccccc1)C(C)CN(C)C (stereo not given)
inactive: dose: 25.0 mg/kg/injection, schedule: Q01DX009 (ip), vehicle: saline 100 % of control | [11] 90 % of control | [12] 89 % of control

CCCCCCCCP(=O)(CCCCCCCC)CCCCCCCC
inactive: dose: 50.0 mg/kg/injection, schedule: Q01DX001 (ip), vehicle: carboxymethylcellulose (CMC) 95 % of control | [8] 95 % of control | [9] 95 % of control | [10] 101 % of control

CCCNC
inactive: [11] 90 % of control | [12] 100 % of control | [6] 96 % of control | [7] 98 % of control

CC(Cc1ccccc1)NC(=O)/C=C/C(=O)O (stereo not given)
inactive: [1] 96 % of control | [2] 103 % of control | dose: 200.0 mg/kg/injection, schedule: Q01DX009 (ip), vehicle: Klucel (hydroxypropylcellulose) (HPC) 106 % of control | [3] 90 % of control | [4] 95 % of control | [5] 101 % of control

CCCCCCCCCCCC(=O)NC(=S)NCc1cccnc1
inactive: dose: 100.0 mg/kg/injection, schedule: Q01DX001 (ip), vehicle: saline with Tween-80 92 % of control | dose: 100.0 mg/kg/injection, schedule: Q01DX009 (ip), vehicle: saline with Tween-80 101 % of control and 105 % of control | dose: 100.0 mg/kg/injection, schedule: Q04DX002 (ip), vehicle: saline with Tween-80 98 % of control and 100 % of control | dose: 200.0 mg/kg/injection, schedule: Q01DX001 (ip), vehicle: saline with Tween-80 93 % of control | dose: 200.0 mg/kg/injection, schedule: Q01DX009 (ip), vehicle: saline with Tween-80 99 % of control and 107 % of control | dose: 200.0 mg/kg/injection, schedule: Q04DX002 (ip), vehicle: saline with Tween-80 108 % of control and 112 % of control | dose: 400.0 mg/kg/injection, schedule: Q01DX001 (ip), vehicle: saline with Tween-80 98 % of control | dose: 400.0 mg/kg/injection, schedule: Q01DX009 (ip), vehicle: saline with Tween-80 96 % of control and 108 % of control | dose: 400.0 mg/kg/injection, schedule: Q04DX002 (ip), vehicle: saline with Tween-80 105 % of control

O=C(Nc1ccc(F)cc1)Nc1ccc(Nc2ccccc2)cc1
inactive: [8] 91 % of control | dose: 100.0 mg/kg/injection, schedule: Q01DX009 (ip), vehicle: carboxymethylcellulose (CMC) 97 % of control | dose: 100.0 mg/kg/injection, schedule: Q04DX002 (ip), vehicle: carboxymethylcellulose (CMC) 93 % of control and 86 % of control | dose: 100.0 mg/kg/injection, schedule: Q04DX003 (ip), vehicle: carboxymethylcellulose (CMC) 88 % of control | [9] 91 % of control | dose: 200.0 mg/kg/injection, schedule: Q01DX009 (ip), vehicle: carboxymethylcellulose (CMC) 87 % of control | dose: 200.0 mg/kg/injection, schedule: Q04DX002 (ip), vehicle: carboxymethylcellulose (CMC) 98 % of control and 86 % of control | dose: 200.0 mg/kg/injection, schedule: Q04DX003 (ip), vehicle: carboxymethylcellulose (CMC) 93 % of control | [10] 91 % of control | dose: 400.0 mg/kg/injection, schedule: Q01DX009 (ip), vehicle: carboxymethylcellulose (CMC) 92 % of control and 87 % of control | dose: 400.0 mg/kg/injection, schedule: Q04DX002 (ip), vehicle: carboxymethylcellulose (CMC) 88 % of control | dose: 400.0 mg/kg/injection, schedule: Q04DX003 (ip), vehicle: carboxymethylcellulose (CMC) 88 % of control
